Measurements as given in US4189349A, “α,δ-Diaminoacid and its lactam” (Rhone-Poulenc Industries, priority 1977, dated 1980).
Values after ≈ are worked out from the molar mass of the structure shown. Read-outs that look alike come from different tables or passages of the source.

How the values were obtained:
[1] = Solubility (French Pharmacopoeia terms / in water); assay type: physicochemical
Experimental: 32232 RP and 35391 RP are of particular interest because of their activity on fungi and yeasts. 32232 RP, in the form of the internal salt, is characterised by the following physical properties:
Solubility: 35391 RP is soluble in water at the rate of about 10 mg/cc.

[2] = Potentiometric titration of an aqueous solution; assay type: physicochemical; conditions: water
Text: The potentiometric equivalent is about 390.
The potentiometric equivalent is about 400.
The potentiometric equivalent is about 370.

[3] = test system: bacteria; assay: Bacteriostatic activity towards bacteria; assay type: cell-based
[4] = Toxicity in mice; conditions: mouse, in vivo; mice, oral; read-out: 50% lethal dose (LD50)
[5] = Anti-fungal activity in vitro by dilution method; assay type: cell-based; conditions: Trichophyton rubrum; 95 to 100% inhibition; Microsporum rubrum; read-out: Minimum active concentration (AC 95-100)
Experimental: (§1) Anti-fungal activity in vitro: The anti-fungal activity of 32232 RP and of 35391 RP towards a certain number of fungi has been determined by one of the dilution methods usually employed for this purpose. For each fungus, the smallest concentration of active substance which, under defined conditions, causes 95 to 100% inhibition of the fungus (AC 95-100) was determined. The results of the various determinations are summarised in Table III below, where the minimum active concentrations are expressed in micrograms of substance per cc. of test medium.

[6] = test system: Aspergillus fumigatus; assay: Anti-fungal activity in vitro by dilution method; assay type: cell-based; conditions: 95 to 100% inhibition, read-out: Minimum active concentration (AC 95-100)
Experimental: as §1

[7] = test system: Aspergillus niger; assay: Anti-fungal activity in vitro by dilution method; assay type: cell-based; conditions: 95 to 100% inhibition, read-out: Minimum active concentration (AC 95-100)
Experimental: as §1

[8] = test system: Blastomyces dermatitidis; assay: Anti-fungal activity in vitro by dilution method; assay type: cell-based; conditions: 95 to 100% inhibition, read-out: Minimum active concentration (AC 95-100)
Experimental: as §1

[9] = test system: Botrytis cinerea; assay: Anti-fungal activity in vitro by dilution method; assay type: cell-based; conditions: 95 to 100% inhibition, read-out: Minimum active concentration (AC 95-100)
Experimental: as §1

[10] = test system: Candida albicans Hi 7; assay: Anti-fungal activity in vitro by dilution method; assay type: cell-based; conditions: HI7, 95 to 100% inhibition, read-out: Minimum active concentration (AC 95-100)
Experimental: as §1

[11] = test system: Candida albicans IP 200; assay: Anti-fungal activity in vitro by dilution method; assay type: cell-based; conditions: IP200, 95 to 100% inhibition, read-out: Minimum active concentration (AC 95-100)
Experimental: as §1

[12] = test system: Candida albicans Pa 1; assay: Anti-fungal activity in vitro by dilution method; assay type: cell-based; conditions: PA1, 95 to 100% inhibition, read-out: Minimum active concentration (AC 95-100)
Experimental: as §1

[13] = test system: Candida krusei IP 208; assay: Anti-fungal activity in vitro by dilution method; assay type: cell-based; conditions: Pichia kudriavzevii, IP208, 95 to 100% inhibition, read-out: Minimum active concentration (AC 95-100)
Experimental: as §1

[14] = test system: Epidermophyton floccosum; assay: Anti-fungal activity in vitro by dilution method; assay type: cell-based; conditions: 95 to 100% inhibition, read-out: Minimum active concentration (AC 95-100)
Experimental: as §1

[15] = test system: Fusarium oxysporum; assay: Anti-fungal activity in vitro by dilution method; assay type: cell-based; conditions: 95 to 100% inhibition, read-out: Minimum active concentration (AC 95-100)
Experimental: as §1

[16] = test system: Hansenula anomala; assay: Anti-fungal activity in vitro by dilution method; assay type: cell-based; conditions: 95 to 100% inhibition, read-out: Minimum active concentration (AC 95-100)
Experimental: as §1

[17] = test system: Microsporum canis; assay: Anti-fungal activity in vitro by dilution method; assay type: cell-based; conditions: 95 to 100% inhibition, read-out: Minimum active concentration (AC 95-100)
Experimental: as §1

[18] = test system: Mucor corymbifer; assay: Anti-fungal activity in vitro by dilution method; assay type: cell-based; conditions: Lichtheimia corymbifera, 95 to 100% inhibition, read-out: Minimum active concentration (AC 95-100)
Experimental: as §1

[19] = test system: Penicillium digitatum; assay: Anti-fungal activity in vitro by dilution method; assay type: cell-based; conditions: 95 to 100% inhibition, read-out: Minimum active concentration (AC 95-100)
Experimental: as §1

[20] = test system: Rhizopus nigricans; assay: Anti-fungal activity in vitro by dilution method; assay type: cell-based; conditions: Rhizopus stolonifer, 95 to 100% inhibition, read-out: Minimum active concentration (AC 95-100)
Experimental: as §1

[21] = test system: Saccharomyces cerevisiae; assay: Anti-fungal activity in vitro by dilution method; assay type: cell-based; conditions: 95 to 100% inhibition, read-out: Minimum active concentration (AC 95-100)
Experimental: as §1

[22] = test system: Saccharomyces ellipsoideus; assay: Anti-fungal activity in vitro by dilution method; assay type: cell-based; conditions: 95 to 100% inhibition, read-out: Minimum active concentration (AC 95-100)
Experimental: as §1

[23] = test system: Saccharomyces pastorianus; assay: Anti-fungal activity in vitro by dilution method; assay type: cell-based; conditions: 95 to 100% inhibition, read-out: Minimum active concentration (AC 95-100)
Experimental: as §1

[24] = test system: Trichophyton mentagrophytes; assay: Anti-fungal activity in vitro by dilution method; assay type: cell-based; conditions: 95 to 100% inhibition, read-out: Minimum active concentration (AC 95-100)
Experimental: as §1

[25] = test system: Candida albicans; assay: Anti-fungal activity in vivo, generalised candidosis in mice; parameters: species or system Candida albicans in mice; conditions: orally or subcutaneously, between 25 mg/kg and 200 mg/kg per day for 4 consecutive days
[26] = test system: mice; assay: Toxicity in mice; conditions: mouse, in vivo, 1000 mg/kg
[27] = 0.1M hydrochloric acid, read-out: apparent pKa of basic group

SMILES | pKa [2, 27] | bacteriostatic activity towards bacteria [3] | MIC [5] [µg/mL] | MIC [6] [µg/mL] | MIC [7] [µg/mL] | MIC [8] [µg/mL] | MIC [9] [µg/mL] | MIC [10] [µg/mL] | MIC [11] [µg/mL] | MIC [12] [µg/mL] | MIC [13] [µg/mL] | MIC [14] [µg/mL] | MIC [15] [µg/mL] | MIC [16] [µg/mL] | MIC [17] [µg/mL] | MIC [18] [µg/mL] | MIC [19] [µg/mL] | MIC [20] [µg/mL] | MIC [21] [µg/mL] | MIC [22] [µg/mL] | other results
Nc1ncnc2c1ncn2C1OC(CC(N)CCC(N)C(=O)O)C(O)C1O (stereo not drawn) [32232 RP] | 8.1 | generally devoid of bacteriostatic activity | > 500 | > 500 | > 500 | 5 (≈ 13.1 µM) | > 500 | 5 (≈ 13.1 µM) | 5 (≈ 13.1 µM) | 3 (≈ 7.87 µM) | 4 (≈ 10.5 µM) | > 500 | > 500 | 2 (≈ 5.24 µM) | > 500 | > 500 | 15 (≈ 39.3 µM) | > 500 | 0.3 (≈ 0.787 µM) | 0.9 (≈ 2.36 µM) | Solubility ([1]; in acetone, internal salt, French Pharmacopoeia): virtually insoluble; Solubility ([1]; in dimethylformamide, internal salt, French Pharmacopoeia): very slightly soluble; Solubility ([1]; in methanol, internal salt, French Pharmacopoeia): very slightly soluble; Solubility ([1]; in water, internal salt, French Pharmacopoeia): easily soluble; pKa ([2]; 0.1M sodium hydroxide, read-out: apparent pKa of weak acid group): 9.8; LD50 [4]: > 1000 mg/kg; MIC [23]: 0.3 µg/mL (≈ 0.787 µM); MIC [24]: > 500 µg/mL; Anti-fungal activity in vivo against generalised candidosis [25]: particularly active
Nc1ncnc2c1ncn2C1OC(CC2CCC(N)C(=O)N2)C(O)C1O (stereo not drawn) [35391 RP] | 7.7 | generally devoid of bacteriostatic activity | 300 (≈ 826 µM) | > 500 | > 500 | 60 (≈ 165 µM) | > 500 | 75 (≈ 206 µM) | 70 (≈ 193 µM) | 40 (≈ 110 µM) | 60 (≈ 165 µM) | 250 (≈ 688 µM) | > 500 | 35 (≈ 96.3 µM) | 300 (≈ 826 µM) | > 500 | 25 (≈ 68.8 µM) | > 500 | 10 (≈ 27.5 µM) | 15 (≈ 41.3 µM) | Solubility ([1]; in water, read-out: Solubility): ~10000 µg/mL (≈ 27500 µM); Toxicity [26]: non-toxic; MIC [23]: 7 µg/mL (≈ 19.3 µM); MIC [24]: 350 µg/mL (≈ 963 µM); Anti-fungal activity in vivo against generalised candidosis [25]: particularly active
